# Key:
# [1] = target: 5-hydroxytryptamine receptor 1D (Homo sapiens, UniProt P28221); assay: Binding affinity at cloned human 5-hydroxytryptamine 1D receptor
# [2] = target: T1, 5-hydroxytryptamine receptor 1B (Homo sapiens, UniProt P28222); assay: Ability to inhibit the forskolin-stimulated c-AMP formation mediated by human 5-hydroxytryptamine 1B receptor in CHO-K1 cells; format: functional, cell-based
# [3] = target: T1, 5-hydroxytryptamine receptor 1B; assay: Inhibition of forskolin-stimulated c-AMP formation by human 5-hydroxytryptamine 1B receptor expressed in CHO-K1 cells; format: functional, cell-based
# [4] = target: T2, 5-hydroxytryptamine receptor 1A (Homo sapiens, UniProt P08908); assay: Ability to inhibit the forskolin-stimulated c-AMP formation mediated by human 5-hydroxytryptamine 1A receptor in CHO-K1 cells; format: functional, cell-based
# T2 sequence (P08908 whole entry): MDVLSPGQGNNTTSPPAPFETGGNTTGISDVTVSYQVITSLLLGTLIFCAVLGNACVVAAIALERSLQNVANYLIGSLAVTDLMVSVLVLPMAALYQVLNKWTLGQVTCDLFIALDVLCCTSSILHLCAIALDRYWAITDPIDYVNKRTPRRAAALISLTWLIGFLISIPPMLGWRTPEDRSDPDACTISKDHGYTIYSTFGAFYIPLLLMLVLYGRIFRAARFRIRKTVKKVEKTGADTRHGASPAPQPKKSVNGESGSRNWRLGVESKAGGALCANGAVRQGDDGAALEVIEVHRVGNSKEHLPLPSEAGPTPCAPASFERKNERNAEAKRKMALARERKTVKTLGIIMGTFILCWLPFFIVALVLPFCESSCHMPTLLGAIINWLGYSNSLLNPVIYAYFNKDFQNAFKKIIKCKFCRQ
# T1 sequence (P28222 whole entry): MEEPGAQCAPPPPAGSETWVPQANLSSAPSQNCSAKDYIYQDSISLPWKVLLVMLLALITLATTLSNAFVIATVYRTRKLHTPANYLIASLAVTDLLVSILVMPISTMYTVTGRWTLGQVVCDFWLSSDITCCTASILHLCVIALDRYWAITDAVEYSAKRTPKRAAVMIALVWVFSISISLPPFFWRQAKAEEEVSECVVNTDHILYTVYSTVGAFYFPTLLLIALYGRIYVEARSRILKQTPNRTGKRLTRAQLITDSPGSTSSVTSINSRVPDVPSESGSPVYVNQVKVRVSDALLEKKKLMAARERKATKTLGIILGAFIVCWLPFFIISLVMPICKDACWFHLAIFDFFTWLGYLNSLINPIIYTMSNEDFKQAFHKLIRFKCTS
# Sequence of 5-hydroxytryptamine receptor 1D (P28221 whole entry): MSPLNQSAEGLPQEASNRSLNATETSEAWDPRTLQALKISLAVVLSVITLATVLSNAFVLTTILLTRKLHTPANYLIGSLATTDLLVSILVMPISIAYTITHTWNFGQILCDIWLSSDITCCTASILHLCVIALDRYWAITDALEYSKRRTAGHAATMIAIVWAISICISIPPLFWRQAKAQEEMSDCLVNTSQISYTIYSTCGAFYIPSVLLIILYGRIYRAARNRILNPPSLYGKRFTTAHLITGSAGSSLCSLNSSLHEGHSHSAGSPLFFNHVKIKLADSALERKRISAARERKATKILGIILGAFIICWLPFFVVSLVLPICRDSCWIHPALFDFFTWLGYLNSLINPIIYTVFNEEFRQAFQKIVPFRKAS
Structure (SMILES),Ki [1],Ki [2],EC50 [3],Ki [4]
NCCc1c[nH]c2ccc(OCC(=O)N3CCNCC3)cc12,> 100 nM,> 100 nM,–,> 100 nM
NCCc1c[nH]c2ccc(OCCN3CCN(C(=O)COc4ccc5[nH]cc(CCN)c5c4)CC3)cc12,0.16 nM,0.11 nM,0.22 nM,9.5 nM
NCCc1c[nH]c2ccc(OCCNC(=O)COc3ccc4[nH]cc(CCN)c4c3)cc12,0.18 nM,0.16 nM,0.44 nM,2.2 nM
NCCc1c[nH]c2ccc(OCc3ccccc3COc3ccc4[nH]cc(CCN)c4c3)cc12,1.5 nM,1.7 nM,2.07 nM,4.3 nM
NCCc1c[nH]c2ccc(OCCCCCCNS(=O)(=O)c3ccc(-c4ccc(S(=O)(=O)NCCCCCCOc5ccc6[nH]cc(CCN)c6c5)cc4)cc3)cc12,0.45 nM,0.38 nM,0.1 nM,1.66 nM
NCCc1c[nH]c2ccc(OCCOc3ccc4[nH]cc(CCN)c4c3)cc12,1 nM,2.5 nM,4 nM,14.3 nM
NCCc1c[nH]c2ccc(OCC(=O)Nc3ccc(N4CCN(C(=O)COc5ccc6[nH]cc(CCN)c6c5)CC4)cc3)cc12,0.09 nM,0.14 nM,0.4 nM,9.8 nM
NCCc1c[nH]c2ccc(OCC(=O)N3CCC(C4CCN(C(=O)COc5ccc6[nH]cc(CCN)c6c5)CC4)CC3)cc12,0.27 nM,0.22 nM,0.26 nM,4 nM
NCCc1c[nH]c2ccc(OCCCCCCOc3ccc4[nH]cc(CCN)c4c3)cc12,0.46 nM,0.5 nM,0.6 nM,1.8 nM

# The next lines start with the values.
Ki [1],Ki [2],EC50 [3],Ki [4],Structure (SMILES)
0.11 nM,0.1 nM,3 nM,1.6 nM,NCCc1c[nH]c2ccc(OCc3ccc(COc4ccc5[nH]cc(CCN)c5c4)cc3)cc12
0.35 nM,0.26 nM,0.19 nM,9.5 nM,NCCc1c[nH]c2ccc(OCCN3CCN(CCOc4ccc5[nH]cc(CCN)c5c4)CC3)cc12
0.3 nM,0.3 nM,0.09 nM,8.6 nM,NCCc1c[nH]c2ccc(OCC(=O)NCCCNC(=O)COc3ccc4[nH]cc(CCN)c4c3)cc12
0.42 nM,0.36 nM,0.28 nM,20 nM,NCCc1c[nH]c2ccc(OCC(=O)N3CCN(C(=O)COc4ccc5[nH]cc(CCN)c5c4)CC3)cc12
0.4 nM,0.2 nM,1.6 nM,2.2 nM,NCCc1c[nH]c2ccc(OCCNC(=O)NCCOc3ccc4[nH]cc(CCN)c4c3)cc12
0.35 nM,0.32 nM,0.85 nM,1 nM,NCCc1c[nH]c2ccc(OCc3cccc(COc4ccc5[nH]cc(CCN)c5c4)c3)cc12
0.11 nM,0.27 nM,0.3 nM,4.06 nM,NCCc1c[nH]c2ccc(OCC(=O)Nc3ccc(NC(=O)COc4ccc5[nH]cc(CCN)c5c4)cc3)cc12

# — ChEMBL document CHEMBL1129591 (J Med Chem, 1996)
